From patent publication US12410220B2, “Modulation of mammalian cell lineage by synthetic immodulins” (priority 2021, dated 2025)
Like-named read-outs stand apart in the source and are kept apart here. Marks after values point to notes of the source that are not given here. Ends that are not written are not given here. Peptide text beside a SMILES is read from it. * marks the point of attachment. RG108 = O=C1c2ccccc2C(=O)N1[C@@H](Cc1c[nH]c2ccccc12)C(=O)*

Assays:
THP1-Dual monocytes [1] = test: THP1-Dual monocyte differentiation assay, PMA protocol; assay type: cell-based, human; details: peptide 330 nM, 24 hours; for CD169+ (AU): relative to immX3AVD = 100
Procedure: (§1) Mammalian cell differentiation assays using THP1-Dual monocytes reporter cell line (Invivogen Inc, San Diego, CA) seeded at 2×10e5 cells per well in 96-well plates and cultured at 37 degrees C. in RPMI-1640 growth medium plus 10% fetal bovine serum and 1% penicillin/streptomycin, then treated for 24 hours with either 100 ng/ml Phorbol 12-myristate 13-acetate (PMA protocol; Cayman Chemical Company, Ann Arbor, MI) or a mixture of IL-4 (100 ng/ml), GM-CSF (100 ng/ml), TNF-alpha (20 ng/ml) and ionomycin (200 ng/ml) (Cytokine protocol; Peprotech, Rocky Hill, NJ). Peptide (330 nM) was then added, and incubation continued for an additional 24 hours. Culture supernatants were then assayed for CCL22. Plates with adherent cells were washed with PBS and assayed for immunoreactivity of surface markers such as CD169, Clec9a, Clec12a or MHCII using fuorescent tag- or biotin-labeled anti-human antibodies purchased from Miltenyi Biotec (Auburn, CA) and a relevant secondary detection reagent, or by fluorescence counts.

[2] = Ferric iron-binding assay of biotinylated immodulin peptides; details: N-terminally biotinylated peptide, 400 ng per well, 60 min room temperature; immX3AVD = 100
Text: N-terminally biotinylated versions of the peptides listed below were used in ferric iron-binding assays involving either an Alexa488-labeled streptavidin protocol (Binding Assay 1) or FITC-NTA assay (Binding Assay 2). Fluorescence was standardized to binding with immX3AVD control peptide (100) and the average of multiple experiments using both protocols is shown. P values are shown relative to the control immX3AVD peptide (**<0.05). D-amino acid residues are underlined in the sequences and the extension tripeptide of immX peptides is shown in bold font. Binding Assay 1 was done as follows: NTA coated 96-well plates (G-Biosciences, St. Louis, MO) were charged with ferric chloride and contacted with equimolar biotinylated peptide: streptavidin-A488 complex (400 ng peptide per well) for 60 min at room temperature, washed with phosphate-buffered saline (PBS) and read at 525 nm in a fluorescence counter. Binding Assay 2 was done as follows: Streptavidin coated 96-well plates (G-Biosciences, St. Louis, MO) were contacted with 400 ng peptide per well in PBS buffer for 60 minutes at room temperature, washed in PBS, then contacted with FITC-NTA (TRC, Toronto, Canada) complexed with equimolar ferric chloride (10× molar equivalent per well) for 60 min at room temperature, washed with PBS and read at 525 nm in a fluorescence counter.

[3] = test system: Pancreatic protease Type I; test: Experiment 5A peptide stability to protease degradation; assay type: in vitro ADME; details: 20 minutes at 37 degrees C, read-out: percentage of surviving peptide after protease treatment
Procedure: Duplicate wells per dilution point in a 96-well NTA-coated plate (G-Biosciences, St. Louis, MO) charged with ferric chloride were adsorbed with 2 ug imm3N1V (V-nephrilin) or immX3N1 (sV-nephrilin) peptide per well for 30 min at room temperature, washed, then incubated with 100 ul/well of 8 or 2 μg/ml protease (Sigma Catalog #P4630, Pancreatic protease Type I) for 20 minutes at 37 degrees C. Plates were washed with PBS buffer and the remaining peptide bound was measured using an in-house calibrated anti-immodulin ELISA (rabbit polyclonal #2501). The percentages of surviving peptide after 8 or 2 μg/ml protease treatment were, respectively: V-nephrilin (imm3N1V): 57.6±2.3% and 79.0±0.7%; sV-nephrilin (immX3N1): 75.1±2.8% and 90.4±3.4% (p<0.001 at both concentrations). Thus, the immX tripeptide extension at the C-terminus using D-amino acids improved peptide stability to protease degradation.

[4] = test system: rat scald-endotoxemia model; test: Experiment 5B rat scald-endotoxemia model; assay type: in vivo, Sprague Dawley rats
Procedure: Experiment 5B. This study explores the effect of immX extensions on sV-nephrilin (SEQ ID NO:31) vs V-nephrilin, as well as in a longer peptide also containing the immX extension (Traumatin-3N1A: SEQ ID NO:35) on in vivo efficacy in a rat scald-endotoxemia model. Animals were treated with peptides using a widely used protocol previously described (see, for example, U.S. Pat. No. 10,369,191). Adult Sprague Dawley rats of both sexes (250-300 gm, Charles River Laboratories, Wilmington, MA, USA) were injected with peptide plus equimolar ferric iron once daily by subcutaneous bolus injection, days 1-7; Treatment group sizes were (n=6): group S=sham-treated; group B=burn+vehicle; group V=burn+1 mg/kg V-nephrilin (V); group sV=burn+1 mg/kg sV-nephrilin (immX3N1sV); group T=burn+1 mg/kg Traumatin-3N1A. The first dose was administered after completion of the scald procedure. Injection volume was 400 uL. Control animals received the same volume of vehicle. On Day 8, animals received a single intraperitoneal injection of 2.5 mg/kg lipopolysaccharide (LPS; Sigma Cat #L-2880) and animals were then monitored by oximeter (MouseOx, Starr Life Sciences) for 4 hours, when respiratory distress (breath distension*breaths/min) was assessed relative to baseline. This was followed by sacrifice and tissue collection as in the published protocol, except that bronchoalveolar lavage (BAL) was collected and cells were recovered from BAL by centrifugation. These cells were stained with fluorescently-labeled antibodies for flow cytometry in order to ascertain granulocyte counts, as shown below. Results of the peptide comparison are presented in the table below. *p<0.05 vs “B” control. #p<0.05 vs “V” group.

THP1-Dual monocytes [5] = test: THP1-Dual differentiation assay, immX3 peptide plus helper or inhibitor molecule; assay type: cell-based, human; details: immX3 peptide (330 nM) in all samples plus helper at the concentration given; immX3 with buffer = 100.0
Procedure: as §1
The THP1-Dual cell differentiation assay was carried out as described above in Example 2, using immX3 peptide (330 nM) in all samples plus the indicated helper or inhibitor molecule. AU=arbitrary ELISA units. **p<0.01.

A375 cells = test: A375 cell viability (CellTiterGlo); assay type: cell-based; details: 72 hours
Procedure: Immune modulation functions of immodulin peptides have great potential untility in the field of cancer. A375 cell line was obtained from American Type Culture Collection (ATCC). They were grown in a T-75 flask in DMEM Medium containing 10% fetal bovine serum and penicillin-streptomycin at 37° C. in a humidified, 5% CO2 incubator. Cells (100 µl, 2,000 cells/well) were plated in a 96-well plate and incubated overnight at 37° C. in a humidified, 5% CO2 incubator. Next day, 10 µl/well of compounds were added (quadruplicate wells). After 72 hour incubation with the compound, cell viability was measured in a luminometer after the addition of 100 IL/well CellTiterGlo reagent (Promega Inc, Madison, WI) as recommended by the manufacturer. Anti-cancer activity of immodulin peptides on A375 cells: A 96-well plate was seeded with 2,000 A375 cells per well in DMEM medium containing 10% FBS and PenStrep. After 24 hrs at 37 deg C., compounds and peptides were added (each treatment done in quadruplicate). After a further 72 hours incubation, 100 μL/well of CTG assay reagent purchased from Promega Inc. (Madison, WI) was added. Plate was read after 10 minutes, as recommended by the manufacturer. Peptides were added at 2 uM. The results of this experiment are shown below, expressed as percent survival of A375 cells.

[6] = Experiment 4D binding to FITC-labelled hyaluronic acid; details: biotinylated peptide 1 ug/well; 1 ug FITC-labelled hyaluronic acid, 90 minutes
Procedure: (§2) Streptavidin-coated 96-well plates (G-Biosciences, St. Louis, MO) were pre-treated with biotinylated peptides [see Example 1 for key] at 1 ug/well, at room temperature for 60 minutes. The plate was washed with PBS buffer and then 1 ug FITC-labelled heparin or hyaluronic acid in 100 uL PBS buffer was added per well (all tests in quadruplicate). Incubation proceeded for 90 minutes at room temperature, followed by two PBS washes. The plate was read in a standard laboratory fluorometer (488/525 nm exitation/[…]) and the counts normalized for immX3 peptide binding=100. Values statistically above background are shown in bold font. **p<0.05 versus immX3AVD.

THP1-Dual monocytes [7] = test: THP1-Dual monocyte differentiation assay, cytokine protocol; assay type: cell-based, human; details: peptide 330 nM, 24 hours, relative to immX3AVD = 100
Procedure: as §1

[8] = Experiment 4D binding to FITC-labelled heparin; details: biotinylated peptide 1 ug/well; 1 ug FITC-labelled heparin, 90 minutes
Procedure: as §2

[9] = Day 1, burn + 1 mg/kg peptide plus equimolar ferric iron, subcutaneous once daily
[10] = Day 8, after LPS, burn + 1 mg/kg peptide days 1-7

KKGFYKKKQCRPSKGRKRGFCWRVD [immX3RVD]
CCL22 (THP1-Dual monocytes [1]; culture supernatant): 272.5 ± 35.7 pg/mL
CD169+ (AU) (THP1-Dual monocytes [1]): 88.1 ± 4.2 AU
Ferric iron binding, fluorescence standardized to immX3AVD control peptide (100), Avg ± SD [2]: 97.5 ± 5.1

CC(C)C[C@H](NC(=O)[C@H](Cc1ccc(O)cc1)NC(=O)[C@H](CC(=O)O)NC(=O)[C@H](CCC(=O)O)NC(=O)[C@@H](NC(=O)[C@@H](NC(=O)CNC(=O)[C@@H](N)CCCNC(=N)N)C(C)C)[C@@H](C)O)C(=O)N[C@@H](CCCNC(=N)N)C(=O)N[C@@H](CC(C)C)C(=O)N[C@@H](CCC(=O)O)C(=O)N[C@H](C(=O)N[C@@H](CC(C)C)C(=O)N[C@H](C(=O)N[C@@H](CCC(N)=O)C(=O)N[C@@H](CCCCN)C(=O)N[C@H](C(=O)N[C@H](C(=O)N[C@@H](CO)C(=O)N[C@@H](CCCCN)C(=O)NCC(=O)N[C@@H](Cc1ccccc1)C(=O)N[C@@H](Cc1ccc(O)cc1)C(=O)N[C@@H](CCCCN)C(=O)N[C@@H](CCCCN)C(=O)N[C@@H](CCCCN)C(=O)N[C@@H](CCC(N)=O)C(=O)N[C@@H](CS)C(=O)N[C@@H](CCCNC(=N)N)C(=O)N1CCC[C@H]1C(=O)N[C@@H](CO)C(=O)N[C@@H](CCCCN)C(=O)NCC(=O)N[C@@H](CCCNC(=N)N)C(=O)N[C@@H](CCCCN)C(=O)N[C@@H](CCCNC(=N)N)C(=O)NCC(=O)N[C@@H](Cc1ccccc1)C(=O)N[C@@H](CS)C(=O)N[C@@H](Cc1c[nH]c2ccccc12)C(=O)O)C(C)C)C(C)C)C(C)C)[C@@H](C)O [V-nephrilin] (H-RGVTEDYLRLETLVQKVVSKGFYKKKQCRPSKGRKRGFCW-OH; N-terminus and C-terminus assumed)
remaining at 20 min ([3]; 2 μg/ml protease): 79 ± 0.7%
remaining at 20 min ([3]; 8 μg/ml protease): 57.6 ± 2.3%
Plasma IL-6 [4, 9]: 31.4 ± 19 pg/mL
Plasma albumin mg/ml (24 hr IR) [4, 9]: 7.9 ± 2.1 mg/mL
Change in body weight (Pct vs Day 1) ([4]; Day 5, burn + 1 mg/kg peptide plus equimolar ferric iron, subcutaneous once daily): −9.8 ± 2.9 Pct
Respiratory distress (Gp. “S” = 100) ([4]; Day 8, 4 hours after LPS, burn + 1 mg/kg peptide days 1-7): 349 ± 95
Wet/dry lung weight (corrected for body weight) ([4]; Day 8, after LPS 2.5 mg/kg ip, burn + 1 mg/kg peptide days 1-7): 7.97 ± 0.76
BAL His48+ granulocytes (FITC units) [4, 10]: 28.9 ± 3.1* FITC units
BAL fluid IL1-beta [4, 10]: 112.8 ± 9.4 pg/mL
Plasma OHDG [4, 10]: 1.44 ± 1.0 ng/mL
Plasma creatinine [4, 10]: 0.91 ± 0.3 mg/dL

Oc1c(C(Nc2nc3ccccc3s2)c2ccc(OC(F)F)cc2)ccc2cccnc12 (centres unmarked) [RIG-I agonist [b], reference compound]
CD169 (AU) (THP1-Dual monocytes [5]): 131.6 ± 4.6** AU
percent survival of A375 cells, RIG-I ag without peptide (A375 cells; RIG-I agonist 4 uM alone (No peptide)): 100.7%

(rg108)-KKGFYKKKQCRPSKGRKRGFCW (RG108-KKGFYKKKQCRPSKGRKRGFCW; cysteine pairing not given here) [imm3rg8, imm3 N-terminally conjugated with RG108]
percent survival of A375 cells, +RIG-I ag (A375 cells; peptide 2 uM plus RIG-I agonist 4 uM): 105.8%
percent survival of A375 cells, Buffer (A375 cells; peptide 2 uM, no RIG-I agonist): 89.9** percent

CC(C)[C@H](NC(=O)[C@H](C)NC(=O)[C@H](Cc1c[nH]c2ccccc12)NC(=O)[C@H](CS)NC(=O)[C@H](Cc1ccccc1)NC(=O)CNC(=O)[C@H](CCCNC(=N)N)NC(=O)[C@H](CCCCN)NC(=O)[C@H](CCCNC(=N)N)NC(=O)CNC(=O)[C@H](CCCCN)NC(=O)[C@H](CO)NC(=O)[C@@H]1CCCN1C(=O)[C@H](CCCNC(=N)N)NC(=O)[C@H](CS)NC(=O)[C@H](CCC(N)=O)NC(=O)[C@H](CCCCN)NC(=O)[C@H](CCCCN)NC(=O)[C@H](CCCCN)NC(=O)[C@H](Cc1ccc(O)cc1)NC(=O)[C@H](Cc1ccccc1)NC(=O)CNC(=O)[C@H](CCCCN)NC(=O)[C@@H](N)CCCCN)C(=O)N[C@@H](CC(=O)O)C(=O)O [immX3AVD] (H-KKGFYKKKQCRPSKGRKRGFCWAVD-OH; N-terminus and C-terminus assumed)
CD169+ (AU) (THP1-Dual monocytes [1]): 100 AU
Hyaluronate binding, counts normalized for immX3 peptide binding=100 [6]: 100.0 ± 22.8
Ferric iron binding, fluorescence standardized to immX3AVD control peptide (100), Avg ± SD [2]: 100.0
Clec12A(AU) (THP1-Dual monocytes [7]): 100 AU
Heparin binding, counts normalized for immX3 peptide binding=100 [8]: 100.0 ± 4.7
